Measurements: paper PMC12446476 (Nature Communications, 2025)
≈ marks a conversion by molar mass, not a printed value. Where “and” joins values, the source holds several entries; their conditions need not be identical. Identical values can stand only once. Like-named read-outs stand apart in the source and are kept apart here.

Legend:
Type in all cases: cell-based, Neisseria gonorrhoeae
[1] = test system: intracellular N. gonorrhoeae; experiment: Intracellular killing in HeLa229 cells; conditions: for reduction of intracellular bacteria: within 24 h; for Colony forming units (CFU) of N. gonorrhoeae internalised in HeLa229 cells, colony count: dilution 0, replicates 1-3, counts 1-2
Protocol: Intracellular killing was assessed within HeLa229 cells (European Collection of Authenticated Cell Cultures, London, UK) that were seeded at ~3 × 10^5 cells/mL and grown to 70–80% confluence in RPMI-glutamine media supplemented with 10% (v/v) heat-inactivated fetal bovine serum (FBS, Gibco, MA, USA). Cells were incubated at 37 °C with 5% CO2 for 24 h, then washed with serum-free RPMI-1640 prior to infection. N. gonorrhoeae was scraped from agar plates and resuspended in Dulbecco’s Phosphate Buffered Saline (DPBS, Sigma-Aldrich), pelleted, then resuspended in RPMI with 2% FBS. Bacterial suspensions were used to infect HeLa229 cells at a multiplicity of infection of 100:1. Plates were briefly centrifuged (500 × g for 5 min), then incubated for one hour. This incubation and all subsequent incubations were performed at 37 °C with 5% CO2. Non-adherent cells were removed by washing with serum-free RPMI, and the remaining extracellular bacteria were killed via resuspension in RPMI-glutamine supplemented with 2% FBS and 200 μg/mL gentamycin and incubation for one hour. […] Azithromycin-treated samples were included for control/comparison. […] Samples were diluted and plated onto chocolate II agar for viable bacteria quantification. Intracellular killing assays were performed at Microbiologics, Kalamazoo, MI, USA, using a method adapted from previous studies[68],[69].

N. gonorrhoeae [2] = experiment: In vitro selection of mutants with reduced susceptibility
Protocol: N. gonorrhoeae strains were grown overnight on chocolate agar plates, as described above. […] Plates were incubated at 35 ± 2 °C in a humid 5% CO2–enriched atmosphere for 48–72 h.

N. gonorrhoeae [3] = experiment: MIC determination, agar dilution (CLSI); conditions: for MIC: Neisseria gonorrhoeae
Method in brief: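 For N. gonorrhoeae, WHO 2024 reference strains served as quality control, only whole doubling-dilution MICs were reported, and isolates were classified by EUCAST v14.0 breakpoints or ECOFF. Time-kill assays followed CLSI in Columbia broth with 1% IsoVitaleX, and viable counts came from plating serial dilutions on GC agar with IsoVitaleX.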

For `Cc1c(CN(C)C(=O)/C=C/c2cnc3c(c2)N[C@H](C)[C@H](O)C(=O)N3)oc2ccccc12` [Debio 1453], the “reduction of intracellular bacteria” value ([1]; ATCC 49226 in HeLa229 cells) was no less than 3.1 log10CFU/mL, the “reduction of intracellular bacteria” value ([1]; WHO X in HeLa229 cells) was no less than 2.8 log10CFU/mL and the “Colony forming units (CFU) of N. gonorrhoeae internalised in HeLa229 cells, colony count” value (shortened to “Colony forming units (CFU)”) ([1]; isolate ATCC 49226, 3 hr, 2X MIC) was 39 CFU and 23 CFU and 37 CFU and 34 CFU and 36 CFU and 40 CFU. For the same compound, the “Colony forming units (CFU)” value ([1]; isolate ATCC 49226, 3 hr, 4X MIC) was 53 CFU and 63 CFU and 32 CFU and 35 CFU and 51 CFU and 39 CFU, the “Colony forming units (CFU)” value ([1]; isolate ATCC 49226, 3 hr, 8X MIC) was 26 CFU and 40 CFU and 33 CFU (2×) and 29 CFU and 38 CFU and the “Colony forming units (CFU)” value ([1]; isolate ATCC 49226, 6 hr, 2X MIC) was 5 CFU. For the same compound, the “Colony forming units (CFU)” value ([1]; isolate ATCC 49226, 6 hr, 4X MIC) was 5 CFU (2×) and 6 CFU, the “Colony forming units (CFU)” value ([1]; isolate ATCC 49226, 6 hr, 8X MIC) was 2 CFU and 6 CFU (2×) and the “Colony forming units (CFU)” value ([1]; isolate ATCC 49226, 10 hr, 2X MIC) was 0 CFU. For the same compound, the “Colony forming units (CFU)” value ([1]; isolate ATCC 49226, 10 hr, 4X MIC) was 1 CFU (3×) and 0 CFU (3×), the “Colony forming units (CFU)” value ([1]; isolate ATCC 49226, 10 hr, 8X MIC) was 0 CFU and the “Colony forming units (CFU)” value ([1]; isolate ATCC 49226, 24 hr, 2X MIC) was 0 CFU. The “Colony forming units (CFU)” value ([1]; isolate ATCC 49226, 24 hr, 4X MIC) was 0 CFU, the “Colony forming units (CFU)” value ([1]; isolate ATCC 49226, 24 hr, 8X MIC) was 0 CFU and the “Colony forming units (CFU)” value ([1]; isolate NCTC 13820, 3 hr, 2X MIC) was 27 CFU and 24 CFU (2×). The “Colony forming units (CFU)” value ([1]; isolate NCTC 13820, 3 hr, 4X MIC) was 25 CFU and 30 CFU and 34 CFU, the “Colony forming units (CFU)” value ([1]; isolate NCTC 13820, 3 hr, 8X MIC) was 29 CFU (2×) and 25 CFU and 31 CFU and the “Colony forming units (CFU)” value ([1]; isolate NCTC 13820, 6 hr, 2X MIC) was 6 CFU and 12 CFU. The “Colony forming units (CFU)” value ([1]; isolate NCTC 13820, 6 hr, 8X MIC) was 5 CFU (2×) and 0 CFU and 11 CFU, the “Colony forming units (CFU)” value ([1]; isolate NCTC 13820, 10 hr, 2X MIC) was 1 CFU (2×) and 2 CFU and 0 CFU and the “Colony forming units (CFU)” value ([1]; isolate NCTC 13820, 10 hr, 4X MIC) was 1 CFU (2×) and 2 CFU (3×) and 0 CFU. The “Colony forming units (CFU)” value ([1]; isolate NCTC 13820, 10 hr, 8X MIC) was 2 CFU and 1 CFU (2×) and 0 CFU (2×), the “Colony forming units (CFU)” value ([1]; isolate NCTC 13820, 24 hr, 2X MIC) was 0 CFU and the “Colony forming units (CFU)” value ([1]; isolate NCTC 13820, 24 hr, 4X MIC) was 0 CFU. The “Mutants (colonies)” value (N. gonorrhoeae [2]; 6804, 4x MIC) was 2, the “Mutants (colonies)” value (N. gonorrhoeae [2]; 6804, 8x MIC) was 0 and the “Mutants (colonies)” value (N. gonorrhoeae [2]; 6804, 16x MIC) was 0. The “Mutants (colonies)” value (N. gonorrhoeae [2]; 6926, 4x MIC) was 1, the “Mutants (colonies)” value (N. gonorrhoeae [2]; 6926, 8x MIC) was 0 and the “Mutants (colonies)” value (N. gonorrhoeae [2]; 6926, 16x MIC) was 0. For the same compound, the “Mutants (colonies)” value (N. gonorrhoeae [2]; ATCC 700825, 16x MIC) was 0, the “Mutants (colonies)” value (N. gonorrhoeae [2]; WHO Z, 4x MIC) was 1 and the “Mutants (colonies)” value (N. gonorrhoeae [2]; WHO Z, 8x MIC) was 0. The “Mutants (colonies)” value (N. gonorrhoeae [2]; WHO Z, 16x MIC) was 0, the MIC range (N. gonorrhoeae [3]; 100 contemporary clinical N. gonorrhoeae isolates) was 0.008 to 0.125 µg/mL and the MIC range (N. gonorrhoeae [3]; 2024 WHO N. gonorrhoeae reference strains) was 0.03 to 0.125 µg/mL. For the same compound, the “increase in MIC” value (N. gonorrhoeae [3]; 6804 clones with FabI L257F vs parent) was 4 fold, the MIC (N. gonorrhoeae [3]; AR Bank0179-15 (AZM-R), mode of multiple measures, read-out: MIC) was 0.03 µg/mL (≈ 0.0713 µM) and the MIC (N. gonorrhoeae [3]; AR Bank0181-17 (AZM-R), mode of multiple measures, read-out: MIC) was 0.125 µg/mL (≈ 0.297 µM). The MIC (N. gonorrhoeae [3]; ATCC700825, read-out: MIC relevant for mutant selection assay, ATCC 700825) was 0.016 µg/mL (≈ 0.0381 µM), the MIC (N. gonorrhoeae [3]; WHO F, agar dilution, read-out: MIC) was 0.03 µg/mL (≈ 0.0713 µM) and the MIC (N. gonorrhoeae [3]; WHO H, agar dilution, read-out: MIC) was 0.06 µg/mL (≈ 0.143 µM). The MIC (N. gonorrhoeae [3]; WHO K, agar dilution, read-out: MIC) was 0.06 µg/mL (≈ 0.143 µM).
